Measurements published in patent publication US20100099561A1, “HETEROBICYCLIC ALKYLTHIO-BRIDGED ISOXAZOLINES” (E.I. DU PONT DE NEMOURS AND COMPANY, priority 2008, published 2010).

Tests used:
Type in all cases: in vivo
[1] = test system: barnyardgrass (Echinochloa crus-galli); assay: Test A postemergence, barnyardgrass; settings: 0 to 100 scale (0 no effect, 100 complete control)
Summary of the method: (§1)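 Species planted together in a loam soil and sand blend received compound either as a preemergence soil spray or as a postemergence treatment when 2–10 cm tall with one to two leaves. About ten days later, injury was visually rated relative to untreated plants on a 0–100 scale.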

[2] = test system: morningglory (Ipomoea spp.); assay: Test A preemergence, morningglory; settings: 0 to 100 scale (0 no effect, 100 complete control)
Summary of the method: as §1

[3] = test system: umbrella sedge (Cyperus difformis); assay: Test B flooded paddy test, umbrella sedge; settings: Flood, scale 0 to 100
Summary of the method: (§2)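 Step one: raise plants to 2 leaves. Step two: flood pots 3 cm over the soil and apply compound into the water, keeping this depth. Step three: after 13–15 greenhouse days, score visually versus controls, 0–100, where 100 means complete control.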

[4] = test system: morningglory (Ipomoea spp.); assay: Test A postemergence, morningglory; settings: 0 to 100 scale (0 no effect, 100 complete control)
Summary of the method: as §1

[5] = test system: pigweed (Amaranthus retroflexus); assay: Test A preemergence, pigweed; settings: 0 to 100 scale (0 no effect, 100 complete control)
Summary of the method: as §1

[6] = test system: giant foxtail (Setaria faberi); assay: Test A preemergence, giant foxtail; settings: 0 to 100 scale (0 no effect, 100 complete control)
Summary of the method: as §1

[7] = test system: corn (Zea mays); assay: Test A preemergence, corn; settings: 0 to 100 scale (0 no effect, 100 complete control)
Summary of the method: as §1

[8] = test system: velvetleaf (Abutilon theophrasti); assay: Test A preemergence, velvetleaf; settings: 0 to 100 scale (0 no effect, 100 complete control)
Summary of the method: as §1

[9] = test system: ducksalad (Heteranthera limosa); assay: Test B flooded paddy test, ducksalad; settings: Flood, scale 0 to 100
Summary of the method: as §2

[10] = test system: large crabgrass (Digitaria sanguinalis); assay: Test A preemergence, large crabgrass; settings: 0 to 100 scale (0 no effect, 100 complete control)
Summary of the method: as §1

[11] = test system: barnyardgrass (Echinochloa crus-galli); assay: Test A preemergence, barnyardgrass; settings: 0 to 100 scale (0 no effect, 100 complete control)
Summary of the method: as §1

[12] = test system: velvetleaf (Abutilon theophrasti); assay: Test A postemergence, velvetleaf; settings: 0 to 100 scale (0 no effect, 100 complete control)
Summary of the method: as §1

[13] = test system: wheat (Triticum aestivum); assay: Test A preemergence, wheat; settings: 0 to 100 scale (0 no effect, 100 complete control)
Summary of the method: as §1

[14] = test system: barnyardgrass (Echinochloa crus-galli); assay: Test B flooded paddy test, barnyardgrass; settings: Flood
Summary of the method: as §2

[15] = test system: pigweed (Amaranthus retroflexus); assay: Test A postemergence, pigweed; settings: 0 to 100 scale (0 no effect, 100 complete control)
Summary of the method: as §1

[16] = test system: wheat (Triticum aestivum); assay: Test A postemergence, wheat; settings: 0 to 100 scale (0 no effect, 100 complete control)
Summary of the method: as §1

[17] = test system: rice (Oryza sativa); assay: Test B flooded paddy test, rice; settings: Flood, scale 0 to 100
Summary of the method: as §2

[18] = test system: large crabgrass (Digitaria sanguinalis); assay: Test A postemergence, large crabgrass; settings: 0 to 100 scale (0 no effect, 100 complete control)
Summary of the method: as §1

[19] = test system: corn (Zea mays); assay: Test A postemergence, corn; settings: 0 to 100 scale (0 no effect, 100 complete control)
Summary of the method: as §1

[20] = test system: giant foxtail (Setaria faberi); assay: Test A postemergence, giant foxtail; settings: 0 to 100 scale (0 no effect, 100 complete control)
Summary of the method: as §1

## CC1(C)CC([S+]([O-])Cc2c(C(F)(F)F)nc3cnccn3c2=O)=NO1 (stereo not shown) [Compound 54]
[1]; 125 g ai/ha
  Plant response rating, Barnyardgrass: 0
[1]; 500 g ai/ha
  Plant response rating, Barnyardgrass: 0
[2]; 125 g ai/ha
  Plant response rating, Morningglory: 0
[2]; 500 g ai/ha
  Plant response rating, Morningglory: 0
[3]; 62 g ai/ha
  Plant response rating, Sedge, Umbrella: 0
[3]; 250 g ai/ha
  Plant response rating, Sedge, Umbrella: 0
[4]; 125 g ai/ha
  Plant response rating, Morningglory: 0
[4]; 500 g ai/ha
  Plant response rating, Morningglory: 10
[5]; 125 g ai/ha
  Plant response rating, Pigweed: 0
[5]; 500 g ai/ha
  Plant response rating, Pigweed: 0
[6]; 125 g ai/ha
  Plant response rating, Foxtail, Giant: 0
[6]; 500 g ai/ha
  Plant response rating, Foxtail, Giant: 0
[7]; 125 g ai/ha
  Plant response rating, Corn: 0
[7]; 500 g ai/ha
  Plant response rating, Corn: 0
[8]; 125 g ai/ha
  Plant response rating, Velvetleaf: 0
[8]; 500 g ai/ha
  Plant response rating, Velvetleaf: 0
[9]; 62 g ai/ha
  Plant response rating, Ducksalad: 0
[9]; 250 g ai/ha
  Plant response rating, Ducksalad: 0
[10]; 125 g ai/ha
  Plant response rating, Crabgrass, Large: 0
[10]; 500 g ai/ha
  Plant response rating, Crabgrass, Large: 0
[11]; 125 g ai/ha
  Plant response rating, Barnyardgrass: 0
[11]; 500 g ai/ha
  Plant response rating, Barnyardgrass: 0
[12]; 125 g ai/ha
  Plant response rating, Velvetleaf: 0
[12]; 500 g ai/ha
  Plant response rating, Velvetleaf: 0
[13]; 125 g ai/ha
  Plant response rating, Wheat: 0
[13]; 500 g ai/ha
  Plant response rating, Wheat: 0
[14]; 62 g ai/ha, scale 0 to 100
  Plant response rating, Barnyardgrass: 0
[14]; 250 g ai/ha, scale 0 to 100 (0 no effect, 100 complete control)
  Plant response rating, Barnyardgrass: 0
[15]; 125 g ai/ha
  Plant response rating, Pigweed: 0
[15]; 500 g ai/ha
  Plant response rating, Pigweed: 0
[16]; 125 g ai/ha
  Plant response rating, Wheat: 0
[16]; 500 g ai/ha
  Plant response rating, Wheat: 0
[17]; 62 g ai/ha
  Plant response rating, Rice: 0
[17]; 250 g ai/ha
  Plant response rating, Rice: 0
[18]; 125 g ai/ha
  Plant response rating, Crabgrass, Large: 0
[18]; 500 g ai/ha
  Plant response rating, Crabgrass, Large: 20
[19]; 125 g ai/ha
  Plant response rating, Corn: 0
[19]; 500 g ai/ha
  Plant response rating, Corn: 0
[20]; 125 g ai/ha
  Plant response rating, Foxtail, Giant: 0
[20]; 500 g ai/ha
  Plant response rating, Foxtail, Giant: 50
